Values after ≈ are worked out from the molar mass of the structure shown. Where two headings read alike, the source gives them in different places.
Key:
[1] = test system: Intestinimonas strain AF211; test: Antibiotic sensitivity (MIC) of Intestinimonas strain AF211; assay type: cell-based, Intestinimonas butyriciproducens
Protocol: “Minimum inhibitory concentration” or “MIC” as used herein refers to the lowest concentration of an antimicrobial that will inhibit the visible growth of a microorganism after overnight incubation. Minimum inhibitory concentrations are important in diagnostic laboratories to confirm resistance of microorganisms to an antimicrobial agent and also to monitor the activity of new antimicrobial agents. An MIC is generally regarded as the most basic laboratory measurement of the activity of an antimicrobial agent against an organism.
Rettedal et al. (Nature Comm. (2014), 5:4714) describe the use of antibiotics to isolate and culture bacteria from the human intestinal tract. However, this approach often results in antibiotic-resistant bacteria and these are undesired in formulations aimed for human or animal use.
Strain AF211 had the following sensitivity to various antibiotics: […]

[2] = test system: Intestinimonas strain P1C2; conditions: against Intestinimonas strain P1C2, described as resistant; cited from earlier work
[3] = Intestinimonas butyriciproducens, against strain AF211, read-out: MIC

In the case of `NC[C@H]1O[C@H](O[C@H]2[C@H](O)[C@@H](O[C@H]3O[C@H](CO)[C@@H](O)[C@H](N)[C@H]3O)[C@H](N)C[C@@H]2N)[C@H](N)C[C@@H]1O` [Tobramycin], the MIC [1, 3] is reported as 2 µg/mL (≈ 4.28 µM).

For `CC[C@H]1OC(=O)[C@H](C)[C@@H](O[C@H]2C[C@@](C)(OC)[C@@H](O)[C@H](C)O2)[C@H](C)[C@@H](O[C@@H]2O[C@H](C)C[C@H](N(C)C)[C@H]2O)[C@](C)(O)C[C@@H](C)C(=O)[C@H](C)[C@@H](O)[C@]1(C)O` [Erythromycin], the MIC of erythromycin [2] is given as 32 µg/mL, the MIC ([1]; Intestinimonas butyriciproducens, against strain AF211, text value, read-out: MIC of erythromycin) is given as 1 µg/mL and the MIC [1, 3] is given as 0.75 to 1 µg/mL (≈ 1.02 to 1.36 µM).

With `CN[C@H](CC(C)C)C(=O)N[C@H]1C(=O)N[C@@H](CC(N)=O)C(=O)N[C@H]2C(=O)N[C@H]3C(=O)N[C@H](C(=O)N[C@H](C(=O)O)c4cc(O)cc(O)c4-c4cc3ccc4O)[C@H](O)c3ccc(c(Cl)c3)Oc3cc2cc(c3O[C@@H]2O[C@H](CO)[C@@H](O)[C@H](O)[C@H]2O[C@H]2C[C@](C)(N)[C@H](O)[C@H](C)O2)Oc2ccc(cc2Cl)[C@H]1O` [Vancomycin] the MIC ([1]; Intestinimonas butyriciproducens, AF211) was 0.75 µg/mL (≈ 0.518 µM).

In the case of Teicoplanin, the MIC ([1]; against strain AF211) is reported as 0.047 µg/mL.

Work on `Cc1onc(-c2ccccc2)c1C(=O)N[C@@H]1C(=O)N2[C@@H]1SC(C)(C)[C@@H]2C(=O)O` [Oxacillin] yielded an MIC [1, 3] of 0.38 µg/mL (≈ 0.947 µM).

Source: US11426436B2, “Bacteria-comprising compositions and methods of using the same for treating and/or preventing gastrointestinal, metabolic and/or other diseases” (priority 2015, dated 2022)
